The record followed here is article PMC7028757 (2020).

In assay [1] the test system is Oxytricha Nova G-quadruplex d(GGGGTTTTGGGG) (DNA, G4) GGGGTTTTGGGG
The assay is described as follows: fluorescence titration. The settings on record: 100 mM NaCl; 10 mM sodium cacodylate, 0.5 mM EDTA, pH 7.0, 20°C.

Assay [2] has the same test system. The assay is described as follows: FID. Particulars: 100 mM NaCl; 10 mM sodium cacodylate, 0.5 mM EDTA, pH 7.0, 20°C; thiazole orange 0.50 μM displaced.
Assay [3] shares this test system. The assay is described as follows: UV melting, 260 nm. The settings on record: 100 mM NaCl; 10 mM sodium cacodylate, 0.5 mM EDTA, pH 7.0; 5 μM quadruplex, ligand 1:1.
The test system of assay [4] is d(AGGGGTTTTCCCCT) hairpin duplex (DNA, hairpin) AGGGGTTTTCCCCT
The assay is described as follows: FID. The settings on record: 100 mM NaCl; 10 mM sodium cacodylate, 0.5 mM EDTA, pH 7.0, 20°C; thiazole orange 0.50 μM displaced.

As for `CN1C(=Cc2cc[n+](C)c3ccccc23)Sc2ccccc21`, the binding result in assay [1] is recorded as “yes”.
Usually ΔTm stands for the shift of the melting midpoint relative to a reference. Take `CN(C)CCN1C(=O)c2ccc3c4c(ccc(c24)C1=O)C(=O)N(CCCNC(=O)NCCSC[C@H]1O[C@@H](O[C@@H]2[C@@H](O)[C@H](N)C[C@H](N)[C@H]2O[C@H]2O[C@H](CN)[C@@H](O)[C@H](O)[C@H]2N)[C@H](O)[C@@H]1O[C@H]1O[C@@H](CN)[C@@H](O)[C@H](O)[C@H]1N)C3=O`: the values for the DC50 in assay [2] and in assay [4] were 7.89 µM and 0.83 µM, respectively. In addition, in assay [3], the ΔTm was found to be 0.6 °C.
On to `NC[C@@H]1O[C@H](O[C@H]2[C@@H](O)[C@H](O[C@@H]3[C@@H](O)[C@H](N)C[C@H](N)[C@H]3O[C@H]3O[C@H](CN)[C@@H](O)[C@H](O)[C@H]3N)O[C@@H]2CO)[C@H](N)[C@@H](O)[C@@H]1O`, for which the DC50 in assay [2] was determined as 76.02 µM; in assay [4], 53.44 µM. Besides, in assay [3], the ΔTm was 0.0 °C.
For `NC[C@@H]1O[C@H](O[C@H]2[C@@H](O)[C@H](O[C@@H]3[C@@H](O)[C@H](N)C[C@H](N)[C@H]3O[C@H]3O[C@H](CN)[C@@H](O)[C@H](O)[C@H]3N)O[C@@H]2CSCCNC(=O)CCCc2ccc3ccc4cccc5ccc2c3c45)[C@H](N)[C@@H](O)[C@@H]1O`, the DC50 in assay [2] turned out to be 4.73 µM; in assay [4], 2.61 µM. Also, the ΔTm in assay [3] was 1.9 °C.
As to `NC[C@@H]1O[C@H](O[C@H]2[C@@H](O)[C@H](O[C@@H]3[C@@H](O)[C@H](N)C[C@H](N)[C@H]3O[C@H]3O[C@H](CN)[C@@H](O)[C@H](O)[C@H]3N)O[C@@H]2CSCCNC(=O)NCCCNC(=O)c2ccc3c(c2)C(=O)c2ccccc2C3=O)[C@H](N)[C@@H](O)[C@@H]1O`, the DC50 in assay [2] is 0.30 µM; in assay [4], 0.75 µM. For the same compound, in assay [3], the ΔTm was found to be 0.5 °C.
